Measurements as given in PubChem BioAssay AID248 (DTP/NCI, 2004).
Where “and” joins values, the source holds several entries; their conditions need not be identical. Equal entries are not always repeated. Toxic doses and inconclusive results are not listed. No stated cut-off is given here; in the data, active means T/C of 150% or more; inactive means T/C below 125%.

System: L1210 leukemia ip in BDF1 mice, survival T/C
Assay: NCI In Vivo Anticancer Drug Screen. Data for tumor model L1210 Leukemia (intraperitoneal) in B6D2F1 (BDF1) mice
Settings: endpoint: mean survival time, higher = longer survival
Summary of the method: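 Tumor cells were implanted, animals were treated, and survival was followed. The result divides the treated measurement by the vehicle-control measurement.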

[1] = dose: 25.0 mg/kg/injection, schedule: Q04DX003 (ip), vehicle: saline with Tween-80
[2] = dose: 50.0 mg/kg/injection, schedule: Q04DX003 (ip), vehicle: saline with Tween-80
[3] = dose: 100.0 mg/kg/injection, schedule: Q04DX003 (ip), vehicle: saline with Tween-80
[4] = dose: 100.0 mg/kg/injection, schedule: Q01DX001 (ip), vehicle: carboxymethylcellulose (CMC)
[5] = dose: 200.0 mg/kg/injection, schedule: Q01DX001 (ip), vehicle: carboxymethylcellulose (CMC)
[6] = dose: 100.0 mg/kg/injection, schedule: Q04DX002 (ip), vehicle: saline
[7] = dose: 200.0 mg/kg/injection, schedule: Q04DX002 (ip), vehicle: saline

Measured: T/C

COc1cc(/C=C\[N+](=O)[O-])ccc1O
inactive: [1] 93 % of control | [2] 96 % of control | [3] 95 % of control

O=C(OC(c1c(Cl)cccc1Cl)c1nccc2ccccc12)c1ccccc1 (stereo unspecified)
inactive: dose: 100.0 mg/kg/injection, schedule: Q01DX001 (ip), vehicle: steriod suspending solution 95 % of control | dose: 200.0 mg/kg/injection, schedule: Q01DX001 (ip), vehicle: steriod suspending solution 97 % of control | dose: 400.0 mg/kg/injection, schedule: Q01DX001 (ip), vehicle: steriod suspending solution 88 % of control

Cc1cc2c(cc1C)N(C(=O)CCl)CCN2C(=O)CCl
inactive: dose: 5.0 mg/kg/injection, schedule: Q01DX Z (ip), vehicle: carboxymethylcellulose (CMC) 97 % of control | dose: 10.0 mg/kg/injection, schedule: Q01DX Z (ip), vehicle: carboxymethylcellulose (CMC) 105 % of control | dose: 20.0 mg/kg/injection, schedule: Q01DX Z (ip), vehicle: carboxymethylcellulose (CMC) 100 % of control | dose: 100.0 mg/kg/injection, schedule: Q01DX001 (ip), vehicle: saline 104 % of control | dose: 200.0 mg/kg/injection, schedule: Q01DX001 (ip), vehicle: saline 98 % of control | dose: 400.0 mg/kg/injection, schedule: Q01DX001 (ip), vehicle: saline 98 % of control

CCCCCCC(=O)/C=C/c1ccc(N(C)C)cc1
inactive: dose: 100.0 mg/kg/injection, schedule: Q01DX001 (sc), vehicle: steriod suspending solution 97 % of control | dose: 100.0 mg/kg/injection, schedule: Q04DX003 (sc), vehicle: steriod suspending solution 105 % of control | dose: 200.0 mg/kg/injection, schedule: Q01DX001 (sc), vehicle: steriod suspending solution 105 % of control | dose: 200.0 mg/kg/injection, schedule: Q04DX003 (sc), vehicle: steriod suspending solution 103 % of control | dose: 400.0 mg/kg/injection, schedule: Q01DX001 (sc), vehicle: steriod suspending solution 97 % of control | dose: 400.0 mg/kg/injection, schedule: Q04DX003 (sc), vehicle: steriod suspending solution 102 % of control

O=CNn1cn[nH]c1=S
inactive: [4] 95 % of control | [5] 98 % of control | dose: 400.0 mg/kg/injection, schedule: Q01DX001 (ip), vehicle: carboxymethylcellulose (CMC) 95 % of control

NC(=O)NC1CC1(c1ccccc1)c1ccccc1 (stereo unspecified)
inactive: dose: 42.0 mg/kg/injection, schedule: Q01DX009 (ip), vehicle: other 105 % of control | dose: 72.0 mg/kg/injection, schedule: Q01DX009 (ip), vehicle: other 111 % of control | dose: 120.0 mg/kg/injection, schedule: Q01DX009 (ip), vehicle: other 105 % of control | dose: 200.0 mg/kg/injection, schedule: Q01DX009 (ip), vehicle: other 93 % of control

CCCCCCCCCCCCCCCC/C(C)=C\C(=O)OC
inactive: dose: 100.0 mg/kg/injection, schedule: Q04DX003 (ip), vehicle: other 93 % of control | dose: 200.0 mg/kg/injection, schedule: Q04DX003 (ip), vehicle: other 93 % of control | dose: 400.0 mg/kg/injection, schedule: Q04DX003 (ip), vehicle: other 93 % of control

Cc1cc(N(C)C)cc(C)c1N=Nc1cc[n+]([O-])cc1
inactive: dose: 12.5 mg/kg/injection, schedule: Q04DX003 (ip), vehicle: saline with Tween-80 98 % of control | [1] 98 % of control | dose: 50.0 mg/kg/injection, schedule: Q01DX009 (ip), vehicle: saline with Tween-80 95 % of control | [2] 100 % of control | dose: 100.0 mg/kg/injection, schedule: Q01DX009 (ip), vehicle: saline with Tween-80 91 % of control | dose: 200.0 mg/kg/injection, schedule: Q01DX009 (ip), vehicle: saline with Tween-80 91 % of control

COc1cc2ccc3c4ccccc4c[n+](C)c3c2cc1OC
inactive: dose: 18.75 mg/kg/injection, schedule: Q01DX001 (ip), vehicle: saline with Tween-80 106 % of control | dose: 37.5 mg/kg/injection, schedule: Q01DX001 (ip), vehicle: saline with Tween-80 106 % of control | dose: 75.0 mg/kg/injection, schedule: Q01DX001 (ip), vehicle: saline with Tween-80 113 % of control

Cc1ccc(/C=C/c2ccccn2)cc1
inactive: dose: 50.0 mg/kg/injection, schedule: Q01DX001 (ip), vehicle: carboxymethylcellulose (CMC) 100 % of control | dose: 50.0 mg/kg/injection, schedule: Q04DX003 (ip), vehicle: carboxymethylcellulose (CMC) 105 % of control | [4] 100 % of control | dose: 100.0 mg/kg/injection, schedule: Q01DX009 (ip), vehicle: carboxymethylcellulose (CMC) 100 % of control and 90 % of control | dose: 100.0 mg/kg/injection, schedule: Q04DX002 (ip), vehicle: carboxymethylcellulose (CMC) 98 % of control and 107 % of control | dose: 100.0 mg/kg/injection, schedule: Q04DX003 (ip), vehicle: carboxymethylcellulose (CMC) 110 % of control | [5] 100 % of control | dose: 200.0 mg/kg/injection, schedule: Q01DX009 (ip), vehicle: carboxymethylcellulose (CMC) 93 % of control and 108 % of control | dose: 200.0 mg/kg/injection, schedule: Q04DX002 (ip), vehicle: carboxymethylcellulose (CMC) 97 % of control and 113 % of control | dose: 200.0 mg/kg/injection, schedule: Q04DX003 (ip), vehicle: carboxymethylcellulose (CMC) 96 % of control | dose: 400.0 mg/kg/injection, schedule: Q04DX002 (ip), vehicle: carboxymethylcellulose (CMC) 98 % of control and 90 % of control

CC(=O)c1cc(O)c2ccccc2c1O
inactive: dose: 100.0 mg/kg/injection, schedule: Q01DX001 (ip), vehicle: water 98 % of control | dose: 200.0 mg/kg/injection, schedule: Q01DX001 (ip), vehicle: water 89 % of control

O=C(O)c1nnn(Cc2ccccc2)c1C(=O)O
inactive: [6] 104 % of control | [7] 104 % of control | dose: 400.0 mg/kg/injection, schedule: Q04DX002 (ip), vehicle: saline 96 % of control

CCCCCC(=O)Oc1c(C(C)(C)C)cc([N+](=O)[O-])c(C)c1[N+](=O)[O-]
inactive: [6] 93 % of control | [7] 93 % of control

O=C(N/N=C\c1cc(Br)cc(Br)c1O)N/N=C/c1cc(Br)cc(Br)c1O
inactive: dose: 100.0 mg/kg/injection, schedule: Q04DX002 (ip), vehicle: saline with Tween-80 108 % of control | dose: 200.0 mg/kg/injection, schedule: Q04DX002 (ip), vehicle: saline with Tween-80 95 % of control | dose: 400.0 mg/kg/injection, schedule: Q04DX002 (ip), vehicle: saline with Tween-80 92 % of control

O=C1NC(=O)C(O)(O)C(=O)N1
inactive: dose: 100.0 mg/kg/injection, schedule: Q01DX009 (ip), vehicle: saline 104 % of control | dose: 200.0 mg/kg/injection, schedule: Q01DX009 (ip), vehicle: saline 93 % of control

CCC(C)NC(=O)Oc1cccc(NC(=O)N(C)C)c1 (stereo unspecified)
inactive: [3] 92 % of control | dose: 200.0 mg/kg/injection, schedule: Q04DX003 (ip), vehicle: saline with Tween-80 89 % of control | dose: 400.0 mg/kg/injection, schedule: Q04DX003 (ip), vehicle: saline with Tween-80 90 % of control

O=[N+]([O-])c1ccc(/C=N/c2nn[nH]n2)cc1 (tested in a mixture with another compound)
inactive: dose: 100.0 mg/kg/injection, schedule: Q04DX003 (ip), vehicle: saline 98 % of control | dose: 200.0 mg/kg/injection, schedule: Q04DX003 (ip), vehicle: saline 100 % of control | dose: 400.0 mg/kg/injection, schedule: Q04DX003 (ip), vehicle: saline 96 % of control

O=S(=O)(Cl)c1ccccc1S(=O)(=O)Cl
inactive: dose: 100.0 mg/kg/injection, schedule: Q04DX003 (ip), vehicle: Klucel (hydroxypropylcellulose) (HPC) 95 % of control | dose: 200.0 mg/kg/injection, schedule: Q04DX003 (ip), vehicle: Klucel (hydroxypropylcellulose) (HPC) 93 % of control | dose: 400.0 mg/kg/injection, schedule: Q04DX003 (ip), vehicle: Klucel (hydroxypropylcellulose) (HPC) 86 % of control

Cc1ccc(C(C)C)c(O)c1C(=O)O
inactive: dose: 100.0 mg/kg/injection, schedule: Q01DX001 (ip), vehicle: Klucel (hydroxypropylcellulose) (HPC) 96 % of control | dose: 200.0 mg/kg/injection, schedule: Q01DX001 (ip), vehicle: Klucel (hydroxypropylcellulose) (HPC) 104 % of control
